# Entries after “also recorded” stand apart in the source; their conditions may differ.
# Key:
# [1] = tested on: FFAR2 signaling; test: Intracellular calcium assay in SK-N-SH cells; format: cell-based, human; settings: 10 μM
# Method: FFAR2 signaling activation increases intracellular calcium (Falomir-Lockhart et al., 2019). To further determine the activation potential of selected compounds for this signaling, we plated the SK-N-SH cells (1.25×10^3 cells per well) into a dark 96-well plate for 24 h. […] Also, 0.01 M EDTA (Sigma) and […] carbachol were used as negative and additional positive controls, respectively. After 15 min, the cells were treated with […] Direct™ calcium reagent along with […] probenecid and further incubated at 37° C. for 30 min. The fluorescence was measured with excitation at 494 nm and emission at 516 nm using a microplate reader.
# [2] = tested on: SK-N-SH cells; test: Senescence β-galactosidase staining; format: cell-based, human; settings: Aβ-treated cells, Fenchol
# Method: After overnight incubation, Aβ 25-32 (25 μM) peptide was added to the cells for 4 h. The Senescence β-Galactosidase Staining Kit (Cell Signaling, USA) was used for the detection of the expression of β-galactosidase activity, following the manufacturer's instructions.
# [3] = tested on: FFAR2 signaling; test: Western blot of phospho-ERK1/2 in SK-N-SH cells (FFAR2 signal activation); format: cell-based, human; settings: 10 μM, 30 min
# Method: To determine the FFAR2 signal activating property of selected compounds, SK-N-SH cells were treated with 10 μM of shortlisted compounds for 30 min at 37° C. and harvested for total protein extraction. […] After sonication, cell extracts were centrifuged at 8,000×g for 10 min at 4° C., and the supernatant was separated in a fresh tube. The total protein concentration of the supernatant was measured using a BCA protein assay kit. An equal amount of total protein (45 μg) from each sample was dissolved in loading buffer and loaded in 4% stacking gel and 10% separating SDS-PAGE gel and resolved at 100 V. Proteins were transferred on a 0.22 μm PVDF membrane and blots were developed with anti-ERK1/2, anti-phosphoERK1/2, ubiquitin (P4D1), and Aβ (6E10) primary antibodies followed by their secondary antibodies and bands were visualized using the Pierce™ Fast Western Blot Kit, ECL Substrate acquired using Syngene Pxi. Band densities were also quantified using NIH ImageJ software. β-actin was used as an internal control.
# [4] = tested on: C. elegans; test: Lifespan assay in C. elegans; format: in vivo; settings: 10 μM
# Method: C. elegans was used as a model for determining the impact of selected compounds on aging and AD-like phenotypes. The wild-type (N2) and CL2122 (dvls15 [9pPD30.38) unc-54(vector)+(pCL26)mtl-2::GFP]) were propagated at 20° C. AD transgenic worms model CL2006 (dvls [pCL12(unc-54/human abeta peptide 1-42 minigene)+pRF4), CL4176 (dvls27[myo-3p::A-Beta (1-42)::let-851 3tUTR)+rol-6 (su1006] and CL2355 (dvls 50 [pCL45 9snb-1::Abeta 1-42::3t UTR 9 log)+mtl-2::GFP]) were maintained at 16° C. All strains were cultured on solid nematode growth medium (NGM) consisting of 3 g/L NaCl, 2.5 g/L peptone, 5 mg/L cholesterol, 1 mM CaCl2), 1 mM MgSO4, 25 mM KH2PO4, and 17 g/L agar and seeded with OP50 (Escherichia coli strain) as a food supply. The worms were allowed to grow up to the adult stage, and egg carrying worms were used to isolate age-synchronized eggs using the bleaching method (Porta-de-la-Riva et al., 2012). […] (N2 and CL2122) or 16° C. (CL2006, CL4176, and CL2355). All of the strains used were acquired from the University of Minnesota-Caenorhabditis Genetics Center, which is funded by the NIH Office of Research Infrastructure Programs (P40 OD010440).
# To determine the impact of selected compounds on age related decline in brain health, the lifespan of the worms was first measured. The L1 worms were cultured in 96-well plates on S-complete media containing E. coli OP50 and antibiotics (about 10-15 animals per well). […] The 0.6 mM Fluorodeoxyuridine (FUDR; 30 μl) was added to each well after 3 days and animals were monitored every other day for viability. The CL4176 and CL2006 worms were grown at 16° C. and N2 worms were grown at 20° C.
# [5] = tested on: proteasome; test: Proteasome activity assay in SK-N-SH cells; format: cell-based, human
# Method: The CL2006 strain, SK-N-SH cells, and brain tissues were sonicated in a lysis buffer (150 mM NaCl, 50 mM HEPES, 2 mM DTT, 20 mM NaF, 5 mM EDTA, 2.5 mM sodium pyrophosphate, 1 mM sodium orthovanadate, and 1 mM α-glycerophosphoric acid) and then centrifuged at 15,000 g at 4° C. for 15 min. Total protein was assayed using BCA kit and 20 μg protein was mixed with 140 μM suc-leu-leu-val-tyr-7-amino-4-methylcou-marin (AMC) in a proteasome activity assay buffer (150 mM NaCl, 50 mM HEPES [pH 7.4], 5 mM ATP, and 5 mM EDTA), and then the fluorescence (excitation 380 nm and emission 460 nm) was measured every 10 min over 3 h using a microplate reader. The assay was performed with and without the proteasome inhibitor MG132 (10 μM).
# [6] = tested on: C. elegans CL2355 and CL2122; test: Chemotaxis activity in C. elegans; format: in vivo; settings: 10 μg/ml
# Method: Then the worms were washed twice with S-Basal media and transferred to an NGM plate without E. coli OP50. These plates were divided into four equal sectors, with 1 μl of 0.1% benzaldehyde as an odorant and 1 μl of 1 M sodium azide as an anesthetic to arrest the worms upon reaching the quadrant were added to the original spot. On the opposite side of the attractant, a 1 μl drop of sodium azide and 1 μl of control odorant (100% ethanol) were added onto the NGM agar plate. Around 40-45 worms were placed in the center of each plate, incubated at room temperature for 1 h, and transferred to 4° C. overnight. The chemotaxis index (CI) was scored using the following formula: (number of worms at the attractant location […])/total number of worms on the plate ([…] et al., 2013).
structure (smiles),measurement,setting,value
CC12CCC(C1)C(C)(C)C2O (centres unmarked) [Fenchol],increase in intracellular calcium levels,[1],highest increase
same,number of senescent neuronal cells,[2],significantly reduced
same,descending order of phospho-ERK1/2 levels,[3],Fenchol>Octopamine>Carvamenthenol>Camphene>Pentanone>Synephrine>Leucinamide>Carene>α-Terpineol>Breneol>L-Fenchone>D-Fenchone>Norpseudoephedrine HCl
same,levels of phospho-ERK1/2 proteins,[3]; vs rest of selected compounds,highest in Fenchol and comparable to acetate
same,survival/lifespan,[4]; CL2006 worms overexpressing human Aβ,significantly increased
same,survival/lifespan,[4]; CL4176 worms overexpressing human Aβ,significantly increased
same,lifespan,[4]; wild-type N2 worms,no significant impacts
same,proteasomal activity,[5],significantly increased
same,proteasome activity in cells also treated with Aβ,[5]; Fenchol plus Aβ,higher
same,memory behavior / chemotaxis index,[6]; CL2355 worms overexpressing human Aβ,significantly higher; also recorded: preserved
same,chemotaxis index,[6]; control CL2122 strain,normal effects
